One data set concerns the target SMO^WT (Mus musculus, UniProt P56726). In words: 8×-GLI-luciferase reporter in SHHN stimulated Smo−/− MEFs expressing SMO^WT. It is filed as cell-based. On the technique in general: Reporter assays use an easily measured gene product as a stand-in for the process of interest.
Data set [1] concerns Ptch^+/−; p53^−/− MB tumorspheres expressing endogenous SMO^WT. Kind of data set: MB tumorsphere proliferation. It is filed as cell-based. To be noted: Mus musculus, 96 h, read-out: IC50 anti-proliferative activity.
For data set [2], the system named is NVP-LDE225 resistant SMO mutants. It is filed as cell-based, mouse. The conditions noted are these: itraconazole 1.5 μM, mutant of Figure 7D.
Another data set deals with P-glycoprotein (PGP). The conditions noted are these: ref Wang et al., 2002; cited from earlier work.
Data set [3] concerns Ptch^+/−; p53^−/− mouse MB allograft (SMO^WT). It is filed as in vivo. The conditions noted are these: day 9 of treatment; ATO 7.5 mg/kg IP qd, itraconazole 75 mg/kg PO bid.
The test system of data set [4] is Gli1 mRNA. Kind of data set: Gli1 mRNA expression in treated SMO^WT MB allografts. It is filed as in vivo, mouse. The conditions noted are these: treated 3 days, harvested 4 h after last dose.
For data set [5], the system named is Gli1 mRNA. Kind of data set: Gli1 mRNA transcription in MB tumorspheres. It is filed as cell-based. The conditions noted are these: Mus musculus, 24 h, read-out: IC50 for Gli1 mRNA transcription.
Another data set has as its target murine SMO^E522K (Mus musculus, UniProt P56726, E522K). Kind of data set: 8×-GLI-luciferase reporter in SHHN stimulated Smo−/− MEFs expressing SMO^E522K. To be noted: GDC-0449 0.5 μM, itraconazole 1.5 μM.

This is an account of results in PMC3548977 (Cancer cell, 2013).

Sequence of SMO^WT (P56726 33-793): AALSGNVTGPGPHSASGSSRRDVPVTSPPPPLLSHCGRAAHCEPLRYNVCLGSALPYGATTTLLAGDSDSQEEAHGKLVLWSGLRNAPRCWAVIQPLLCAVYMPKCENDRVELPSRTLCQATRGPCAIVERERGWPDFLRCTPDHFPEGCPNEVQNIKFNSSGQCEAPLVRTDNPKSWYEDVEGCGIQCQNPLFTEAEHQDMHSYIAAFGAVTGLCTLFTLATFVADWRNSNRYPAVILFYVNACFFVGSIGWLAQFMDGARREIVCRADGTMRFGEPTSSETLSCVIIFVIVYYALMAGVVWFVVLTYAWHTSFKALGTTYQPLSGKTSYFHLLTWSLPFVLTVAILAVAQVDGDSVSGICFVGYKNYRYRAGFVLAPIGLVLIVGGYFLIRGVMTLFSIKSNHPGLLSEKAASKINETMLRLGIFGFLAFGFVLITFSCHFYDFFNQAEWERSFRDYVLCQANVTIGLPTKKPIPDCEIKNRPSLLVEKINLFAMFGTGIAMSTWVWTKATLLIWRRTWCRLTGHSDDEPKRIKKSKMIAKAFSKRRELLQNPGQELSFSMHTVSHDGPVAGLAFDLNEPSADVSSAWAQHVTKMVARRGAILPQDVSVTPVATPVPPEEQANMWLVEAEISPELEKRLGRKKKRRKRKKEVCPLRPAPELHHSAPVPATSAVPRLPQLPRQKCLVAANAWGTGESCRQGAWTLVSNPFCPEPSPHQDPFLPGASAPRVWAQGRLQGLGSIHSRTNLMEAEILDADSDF
Sequence of murine SMO^E522K (P56726 33-793 E522K): as the sequence (P56726 33-793) above, with E490K counted along it

`CCC(C)n1ncn(-c2ccc(N3CCN(c4ccc(OCC5COC(Cn6cncn6)(c6ccc(Cl)cc6Cl)O5)cc4)CC3)cc2)c1=O` (stereo not drawn) [itraconazole]: the values for the IC50 (against SMO^WT; in data set [1]; in the data set on Gli1 mRNA [5]) were roughly 600 nM, 55 nM and roughly 100 nM, respectively. Besides, on SMO^WT (SHHN stimulated Smo−/− MEFs expressing SMO^WT), the “Inhibition of relative Hh pathway activity (8×-GLI-luciferase reporter)” value is reported as “full antagonist”. Also, the “Inhibition of mutant activity” value in data set [2] is ~ 60%. In the data set with P-glycoprotein (PGP), the “Inhibition of PGP” value is given as “potent inhibitor”. For the same compound, the “Tumor growth inhibition compared to vehicle-treated tumors” value in data set [3] came to 96%. In the data set with Gli1 mRNA [4], the “Inhibition of tumor Gli1 mRNA expression compared to vehicle-treated tumors” value was determined as 55%. Also, on murine SMO^E522K, the “Inhibition of SMO^E522K activity” value was “almost completely inhibited”.
